Test results from patent US5470737A, “Stably-transformed cells expressing human thiopurine methyltransferase” (priority 1994, dated 1995).
Entries after “also recorded” stand apart in the source; their conditions may differ.

Key:
[1] = biological target: T1, TPMT (Homo sapiens, UniProt P51580); experiment: Inhibition of TPMT, all sources of enzyme (summary in words); type: biochemical
T1 construct: T84 cDNA transiently expressed in COS-1 cells, plus native human kidney 100,000×g supernatant, partially purified kidney Peak I and T84 cell enzyme
T1 sequence (P51580 1-245): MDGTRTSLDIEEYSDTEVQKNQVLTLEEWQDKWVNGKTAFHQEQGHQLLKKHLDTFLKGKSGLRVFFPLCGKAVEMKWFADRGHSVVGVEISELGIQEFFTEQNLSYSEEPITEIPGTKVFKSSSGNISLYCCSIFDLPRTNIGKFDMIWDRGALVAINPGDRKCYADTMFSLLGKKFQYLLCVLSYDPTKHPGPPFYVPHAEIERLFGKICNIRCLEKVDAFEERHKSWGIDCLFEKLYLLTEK
Excerpt: (§1) Finally, the response of the TPMT expressed in COS-1 cells to a panel of methyltransferase inhibitors and ions was compared with that of TPMT activity in human kidney 100,000×g supernatant, partially purified human kidney Peak I TPMT and T84 cell TPMT (Table 3).
As shown by the data in Table 3, the results were nearly identical for all sources of enzyme and each activity was inhibited by the TPMT reaction products, Ado-Hcy and 6-MMP. However, the enzyme was not affected by inhibitors of other methyltransferase enzymes.

[2] = biological target: T2, TPMT expressed in COS-1 cells transfected with T84 TPMT cDNA (Homo sapiens, UniProt P51580); experiment: Panel of methyltransferase inhibitors and ions, COS-1 cells transfected with T84 TPMT cDNA; type: biochemical; settings: COS-1 cells transfected with T84 TPMT cDNA
T2 construct: digested with SstI to excise the coding region, the 5'-untranslated region and a portion (ca. 600 nucleotides) of the 3'-untranslated region; expressed in transfected cells; host or cells: COS-1 (simian), vector P91023(B)
T2 sequence (P51580 1-245): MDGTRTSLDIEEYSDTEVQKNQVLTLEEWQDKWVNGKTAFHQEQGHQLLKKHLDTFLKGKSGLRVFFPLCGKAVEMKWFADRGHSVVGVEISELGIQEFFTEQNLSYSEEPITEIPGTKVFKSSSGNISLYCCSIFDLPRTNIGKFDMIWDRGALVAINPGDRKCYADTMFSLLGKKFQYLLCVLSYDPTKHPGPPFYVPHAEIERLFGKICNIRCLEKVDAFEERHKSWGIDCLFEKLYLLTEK
Protocol: (§2) TPMT activity in renal tissue was measured by the method of R. M. Weinshilboum et al., in Clin. Chim. Acta, 85, 323 (1978) as modified by L. C. Woodson et al., Biochem. Pharmacol., 32, 819 (1983) to assay the enzyme in human kidney preparations. […] Assay conditions for the measurement of TPMT in T84 human colon carcinoma cells and in COS-1 cells were identical with those used to measure the enzyme activity in human renal tissue. One unit of TPMT activity represented the formation of 1 nmol of 6-MMP per hr of incubation at 37° C.
Simian COS-1 cells were then plated in 100-mm dishes at a density of 1.5-1.8×10^6 cells/dish in DMEM with 10% fetal calf serum, and were allowed to grow overnight. Three dishes of cells were used for each transfection. Purified "sense" plasmid vector (0.5 μg) was mixed with DEAE-dextran and DMEM, and the mixture was added to the cell culture dishes, following the procedures of J. H. McCutchan et al., J. Natl. Cancer Inst., 41, 351 (1988) and R. J. Kaufman et al., Mol. Cell. Biol., 9, 946 (1989). Control cells were treated with no DNA, with expression vector alone, or with constructs that contained the cDNA clone in an antisense orientation. After 1 hr, the DNA-DEAE-dextran solution was replaced for 2 min with DMEM that contained 10% dimethylsulfoxide, followed by incubation for 2 hr in 0.1 mM chloroquine in DMEM following the procedure of H. Luthman et al., Nucl. Acids Res., 11, 1295 (1983). Cells were then grown for 40-42 hr in DMEM with 10% fetal calf serum. The cells from each transfection were harvested and pooled, cell pellets were washed in 5 ml of PBS, and the cell pellets were homogenized for 30 sec in 2 ml of 5 mM potassium phosphate buffer, pH 7.5. Homogenates were centrifuged at 15,000×g for 15 min at 4° C., supernatants from that step were centrifuged at 100,000×g for 1 hr at 4° C., and 0.25 μl aliquots of 100,000×g supernatant preparations were then assayed for transient expression of TPMT enzymatic activity.

[3] = biological target: T3, TPMT, human kidney 100,000×g supernatant (Homo sapiens, UniProt P51580); experiment: Panel of methyltransferase inhibitors and ions, human kidney 100,000×g supernatant; type: biochemical; settings: human kidney 100,000×g supernatant
T3 construct: renal tissue was homogenized in 5 mM potassium phosphate buffer, pH 7.5, with a Polytron homogenizer, and a 100,000×g supernatant was prepared; from tissue; host or cells: human kidney (renal tissue)
T3 sequence (P51580 1-245): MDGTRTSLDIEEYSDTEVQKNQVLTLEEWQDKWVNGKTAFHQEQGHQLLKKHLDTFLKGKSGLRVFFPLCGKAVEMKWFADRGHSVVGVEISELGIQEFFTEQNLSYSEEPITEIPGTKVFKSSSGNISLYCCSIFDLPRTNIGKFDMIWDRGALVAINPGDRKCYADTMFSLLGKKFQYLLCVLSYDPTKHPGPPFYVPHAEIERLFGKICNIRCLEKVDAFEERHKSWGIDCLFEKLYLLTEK
Protocol: Renal tissue was obtained either during autopsy or from patients undergoing clinically indicated nephrectomies. Hepatic tissue was obtained from patients who underwent clinically indicated partial hepatectomies for the removal of primary or metastatic hepatic tumors. All tissue was obtained under guidelines approved by the Mayo Clinic Institutional Review Board. Macroscopically normal tissue was stored at -80° C., conditions under which TPMT activity is stable (C. L. Szumlanski et al., Pharmacogenetics, 2, 148 (1992); J. A. Van Loon et al., Drug Met. Disposit., 18, 632 (1990)). Prior to enzyme purification, renal tissue was homogenized in 5 mM potassium phosphate buffer, pH 7.5, with a Polytron homogenizer, and a 100,000×g supernatant was prepared as described by L. C. Woodson et al., Biochem. Pharmacol., 32, 819 (1983). Amino acid sequence information was obtained with TPMT purified from human renal tissue--a tissue with a high specific activity for the enzyme.
(§3) TPMT activity in renal tissue was measured by the method of R. M. Weinshilboum et al., in Clin. Chim. Acta, 85, 323 (1978) as modified by L. C. Woodson et al., Biochem. Pharmacol., 32, 819 (1983) to assay the enzyme in human kidney preparations. […] Ado-Met as the methyl donor. Assay conditions for the measurement of TPMT in T84 human colon carcinoma cells and in COS-1 cells were identical with those used to measure the enzyme activity in human renal tissue. One unit of TPMT activity represented the formation of 1 nmol of 6-MMP per hr of incubation at 37° C.
as §1

[4] = biological target: T4, human kidney TPMT Peak I (Homo sapiens, UniProt P51580); experiment: Panel of methyltransferase inhibitors and ions, human kidney Peak I TPMT; type: biochemical; settings: human kidney TPMT Peak I
T4 construct: Human renal tissue contains two isoforms of TPMT, Peak I and Peak II, that can be separated by DEAE ion exchange chromatography; from tissue; host or cells: human kidney, DEAE Peak I, gel filtration
T4 sequence (P51580 1-245): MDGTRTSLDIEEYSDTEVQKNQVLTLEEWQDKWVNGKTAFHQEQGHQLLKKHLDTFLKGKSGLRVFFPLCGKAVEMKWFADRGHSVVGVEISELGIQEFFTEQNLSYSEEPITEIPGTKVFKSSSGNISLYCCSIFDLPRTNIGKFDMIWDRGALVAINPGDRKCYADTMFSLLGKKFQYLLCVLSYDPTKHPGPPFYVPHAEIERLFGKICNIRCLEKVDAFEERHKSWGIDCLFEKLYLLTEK
Excerpt: Human renal tissue contains two isoforms of TPMT, Peak I and Peak II, that can be separated by DEAE ion exchange chromatography as reported by J. A. Van Loon et al., Biochem. Genet., 20, 637 (1982). The two isoforms were separated by DEAE ion exchange chromatography, and the Peak I enzyme was then purified by gel filtration chromatography performed with Sephadex G-100 superfine as described by J. A. Van Loon et al., cited above. In some experiments, hydroxylapatite chromatography performed as described by J. A. Van Loon et al., in Biochem. Pharmacol., 44, 775 (1992) was added as a third purification step.
as §3, §1

[5] = test system: histamine N-methyltransferase (HNMT); settings: cited from earlier work
[6] = biological target: T5, T84 cell TPMT (Homo sapiens, UniProt P51580); experiment: Panel of methyltransferase inhibitors and ions, T84 cell 100,000×g supernatant; type: biochemical; settings: T84 cell 100,000×g supernatant
T5 construct: Cytosol from T84 cells did contain TPMT enzymatic activity; host or cells: T84 human colon carcinoma cells
T5 sequence (P51580 1-245): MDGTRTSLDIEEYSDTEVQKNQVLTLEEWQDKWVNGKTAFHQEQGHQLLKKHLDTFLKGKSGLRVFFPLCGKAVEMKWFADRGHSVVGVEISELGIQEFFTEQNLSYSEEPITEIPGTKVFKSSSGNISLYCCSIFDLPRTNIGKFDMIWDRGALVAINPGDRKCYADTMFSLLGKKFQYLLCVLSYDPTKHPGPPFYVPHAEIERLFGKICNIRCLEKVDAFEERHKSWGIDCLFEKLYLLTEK
Protocol: as §3
T84 human colon carcinoma cells (American Type Culture Collection, Rockville, Md.) were grown to confluence in an equal volume mixture of Dulbecco's modified Eagle's medium (DMEM) and Ham's F12 media with 5% fetal calf serum. The cells were then harvested, cell pellets were washed in phosphate buffered saline (PBS), and the pellets were homogenized for 30 sec in 1 ml of 5 mM potassium phosphate buffer, pH 7.5, with a Polytron homogenizer. Homogenates of the cells were centrifuged at 100,000×g for 1 hr at 4° C., and the supernatant was used to assay TPMT activity and to determine selected biochemical properties of the enzyme.
as §1

[7] = test system: patients with genetically low or undetectable RBC TPMT activity; settings: patients lacking or with low TPMT activity; cited from earlier work
[8] = test system: TPMT; settings: cited from earlier work
[9] = biological target: T6, human kidney TPMT (Homo sapiens, UniProt P51580); settings: cited from earlier work
T6 construct: to assay the enzyme in human kidney preparations; host or cells: human kidney
T6 sequence (P51580 1-245): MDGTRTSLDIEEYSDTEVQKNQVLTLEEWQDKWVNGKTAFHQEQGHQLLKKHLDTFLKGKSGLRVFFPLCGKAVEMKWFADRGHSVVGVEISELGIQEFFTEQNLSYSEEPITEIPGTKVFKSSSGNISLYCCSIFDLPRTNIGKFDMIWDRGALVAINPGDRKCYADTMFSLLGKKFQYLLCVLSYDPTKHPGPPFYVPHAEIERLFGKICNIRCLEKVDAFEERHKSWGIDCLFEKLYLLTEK

[10] = biological target: T5, T84 cell TPMT; experiment: TPMT biochemical characteristics: pH optimum and apparent Km, T84 cells; settings: 150 mM potassium phosphate buffer, seven pH values 5.5 to 8.5
Protocol: as §2

[11] = substrate: C[S+](CC[C@H](N)C(=O)O)C[C@H]1O[C@@H](n2cnc3c(N)ncnc32)[C@H](O)[C@@H]1O; experiment: purified protein, by the assay type; settings: other: T84 cells; 3.4 mM 6-MP, Ado-Met 0.78 to 25 μM; 37.0 °C
[12] = substrate: Sc1ncnc2nc[nH]c12; experiment: purified protein, by the assay type; settings: other: T84 cells; 25 μM Ado-Met, 6-MP 0.11 to 6.8 mM; 37.0 °C
[13] = tissue stored at -80° C.; cited from earlier work
[14] = 1 mM, read-out: Activity Remaining, %

CCN(CC)Cc1cc(Nc2ccnc3cc(Cl)ccc23)ccc1O [Amodiaquine]
effect on TPMT activity (in words) [1]: not affected
remaining activity at 1000 µM [2, 14]: 95%
remaining activity at 1000 µM [3, 14]: 97%
remaining activity at 1000 µM [4, 14]: 90%
inhibition of histamine N-methyltransferase (in words) [5]: an inhibitor of histamine N-methyltransferase
remaining activity at 1000 µM [6, 14]: 96%

Cn1cnc([N+](=O)[O-])c1Sc1ncnc2nc[nH]c12 [azathioprine]
risk of myelosuppression (in words) [7]: even more at risk for the occurrence of severe myelosuppression; also recorded: greatly increased risk for the development of life-threatening thiopurine-induced myelosuppression
substrate for TPMT (in words) [8]: substrates for TPMT

CSc1ncnc2nc[nH]c12 [6-MMP, 6-methylmercaptopurine]
effect on TPMT activity (in words) [1]: inhibited
remaining activity at 5000 µM ([2]; 5 mM): 29%
remaining activity at 5000 µM ([3]; 5 mM): 26%
remaining activity at 5000 µM ([4]; 5 mM): 30%
remaining activity at 5000 µM ([6]; 5 mM): 27%

C[S+](CC[C@H](N)C(=O)O)C[C@H]1O[C@@H](n2cnc3c(N)ncnc32)[C@H](O)[C@@H]1O (stereo partly drawn) [Ado-Met, S-adenosyl-L-methionine]
Km ([9]; read-out: Apparent Km value for Ado-Met): 2.7 µM

B1: T84 cell TPMT (Homo sapiens) (protein)
chain: MDGTRTSLDIEEYSDTEVQKNQVLTLEEWQDKWVNGKTAFHQEQGHQLLKKHLDTFLKGKSGLRVFFPLCGKAVEMKWFADRGHSVVGVEISELGIQEFFTEQNLSYSEEPITEIPGTKVFKSSSGNISLYCCSIFDLPRTNIGKFDMIWDRGALVAINPGDRKCYADTMFSLLGKKFQYLLCVLSYDPTKHPGPPFYVPHAEIERLFGKICNIRCLEKVDAFEERHKSWGIDCLFEKLYLLTEK
pH Optimum [9]: 6.5
pH Optimum [10]: 6.5
Km [11]: 5.1 µM
Km [12]: 710 µM
stability of TPMT activity (in words) [13]: stable
